Columns and labels:
Assay type in all cases: cell-based
[1] = tested on: caspase-3, Bid and Bax; test: Western blotting of caspase-3 activation, Bid and Bax in primary rat hepatocytes
Source text: (§1) Male outbred Sprague-Dawley rats (200-300 g, Iffa Credo, Brussels, Belgium) were kept under controlled environmental conditions (12-hr light-dark cycle) and fed a standard diet (Animafabo A04, water ad libitum). Hepatocytes were isolated by a two-step collagenase perfusion as described (De Smet et al. In ‘Methods in Molecular Biology, Vol. 107: Cytochrome P450 Protocols’, Philips I R and Shephard E A, eds., pp 295-301, Humana Press, Totowa, 1998). Cell liability was >90% as determined by trypan blue exclusion. Cells (0.4×10^5 cells/cm^2) were plated in MEM/M199 (3:1), containing BSA (1 mg/ml), bovine insulin (10 μg/ml), L-glutamine (2 mM), FBS (10% v/v) and antibiotics (7.3 IU/ml benzyl penicillin, 50 μg/ml streptomycin sulphate, 50 μg/ml kanamycin monosulphstep and 10 μg/ml sodium ampicillin). Four hours after plating, serum-containing medium was removed and fresh serum-free medium was added to the cultures. Culture medium was refreshed daily. EGF (50 ng/ml) was added 4 hours after plating. A 100 mM stock solution of 4-Me2N-BAVAH was prepared in ethanol.
Total cell extracts were prepared as described previously (Papeleu et al. J Hepatol 39: 374-382, 2003) and proteins (25 or 50 μg per lane) were separated electrophoretically by SDS-PAGE and electroblotted onto nitrocellulose membranes (Amersham Pharmacia Biotech, Buckinghamshire, UK). Equal sample loading was verified by immersion of the membranes in Ponceau S. Unspecific binding sites were blocked with 5% skim milk/Tris-buffered saline. Incubations with primary antibodies were performed overnight at 4° C. under gentle shaking. Proteins were detected using the ECL detection system (Amersham Pharmacia Biotech, Buckinghamshire, UK) according to the manufacturer's recommendations.

[2] = tested on: Pak1; test: Western blotting of Pak1 in primary rat hepatocytes; settings: 50 μM, sustained treatment, EGF-stimulated
Source text: as §1, with “EGF (50 ng/ml) was added 4 hours after plating. A 100 mM stock solution of 4-Me2N-BAVAH was prepared in ethanol.” left out
Total cell extracts were prepared as described previously (Papeleu et al. J Hepatol 39: 374-382, 2003) and proteins (25 or 50 μg per lane) were separated electrophoretically by SDS-PAGE and electroblotted onto nitrocellulose membranes (Amersham Pharmacia Biotech, Buckinghamshire, UK). […] Proteins were detected using the ECL detection system (Amersham Pharmacia Biotech, Buckinghamshire, UK) according to the manufacturer's recommendations.

[3] = tested on: primary rat hepatocytes; test: DNA synthesis ([methyl-3H]-thymidine) in EGF-stimulated primary rat hepatocytes
Source text: as §1
Hepatocytes were cultured in triplicate in 35 mm tissue culture dishes (Beckton Dickinson, UK). Cells were incubated with [methyl-^3H]-thymidine (25 Ci/mmol (2 μCi/ml)) for 24 hours prior to harvesting. Its incorporation was measured by liquid scintillation counting (Wallac 1410; counting efficiency: 67.5%) after trichloroacetic acid precipitation of the DNA. Results are expressed as counts per minute (cpm) per μg of total cellular proteins. Protein concentration of the samples was determined according to the Bradford procedure (Bradford. Anal Biochem 72: 248-254, 1976), using BSA as a standard.

[4] = tested on: histone H4; test: Histone H4 acetylation (in vitro HDAC inhibiting activity) in primary rat hepatocytes, Western blot; settings: 48 hours
Source text: as §1
Hepatocytes were treated for 48 hours with 4-Me2N-BAVAH (10, 25 or 50 μM) Histones were acid-extracted as described previously (Coussens et al. J Biol Chem 254:1716-1723, 1979). Extracted histones (20 μg per lane) were electrophoresed on a 15% SDS-PAGE as described (Waterborg J et al. Anal Biochem 162: 430-434, 1987) and blotted. Equal sample loading was confirmed with Ponceau S. Membranes were incubated at room temperature with primary antibody for 1 hour under gentle shaking and visualized by ECL. Band intensities were quantified by laser densitometry.

[5] = tested on: histone H4; test: Acetylated histone H4 by immunocytochemistry in rat hepatocytes; settings: 1 μM TSA
Procedure: (§2) In all conditions, the hepatocytes were cultivated as a monolayer configuration, and samples were taken at days 1, 4 and 7 (D1, D4, D7) of the cultivation time.
(§3) Hepatocytes were fixed with cold ethanol, peremeabilised with Triton X-100 (Sigma) and blocked with non-fatty milk. Following incubation with appropriate concentrations of primary and secondary antibodies (FITC or TRITC labeled), samples were mounted with DAPI-containing Vectashield (Vector Laboratories). Detection was performed by fluorescence microscopy (Leica DMR/XA).

[6] = tested on: Cx32; test: Cx32 expression (immunoblotting) in rat hepatocytes; settings: 1 μM TSA
Procedure: as §2
Proteins (25 or 50 μg) were resolved on SDS-PAGE (7.5, 10 or 12%) and blotted afterwards onto nitrocellulose membranes. After blocking with non-fatty milk, membranes were incubated with appropriate concentrations of primary and secondary antibodies (HRP labeled). Proteins were detected using the ECL detection system (Amersham Biosciences). Primary antibodies: Cx26 (Zymed, 1/250), Cx32 (Sigma, 1/500), Cx43 (Zymed, 1/100).
as §3

[7] = tested on: glutathione S-transferase (GST); test: Total cytosolic GST activity in cultured rat hepatocytes; settings: TSA starting at 4 hours; day 4 and 7
Source text: (§4) Hepatocytes were isolated from male Sprague-Dawley rats by a two-step collagenase perfusion as described (De Smet et al. In ‘Methods in Molecular Biology, Vol. 107: Cytochrome P450 Protocols’, Philips IR and Shephard E A, eds., p.p 295-301, Humana Press, Totowa, 1998). Hepatocytes were cultivated in monolayer cultures with Willam's E Medium (WE) for 7 days. […] The maintenance of differentiation characteristics was studied after 2, 4, and 7 days (D2, D4, D7) of culture.
In order to investigate Phase II biotransformation, total cytosolic glutathione S-transferase (GST) activity and activities of individual GSTA, GSTP, and GSTM iso-enzymes were measured using standard techniques known in the art. (i.e., measuring conjugation of reduced glutathione with 1-chloro-2,4-dinitrobenzene for total GST; measuring conjugation of reduced glutathione with 7-chloro-4-nitrobenzo-2-oxa-1,3-diazole for GSTA activity; measuring conjugation of reduced glutathione with ethacrynic acid for GSTP activity; and measuring conjugation of reduced glutathione with 1,2-dichloro-4-nitrobenzene for GSTM activity).

[8] = tested on: CYP 1A1; test: CYP 1A1 activity (ethoxyresorufin conversion) in cultured rat hepatocytes
Source text: as §4
Phase I biotransformation was assessed by means of activity measurements of the microsomal cytochrome P450 (CYP) 1A1 and 2B1/2 iso-enzymes, using standard techniques known in the art (i.e., measuring conversion of ethoxyresorufin into hydroxyresorufin for CYP 1A1 and conversion of penthoxyresorufin to hydroxyresorufin for CYP 2B1/2) (Burke et al. Drug Metab Dispos 2:583-588, 1974). Microsomes were prepared from freshly isolated and hepatocytes cultured for 7 days according to Hales et al. (Biochem Pharmacol 26:555-556, 1977).

Row | Compound | expression of pro-apoptotic proteins Bid and Bax ([1]; 50 μM) | cleavage of pro-caspase-3 into active p18 fragments ([1]; 24 and 48 hours of culture) | cleavage of pro-caspase-3 into active p18 fragments ([1]; after 72 hours of treatment) | cellular levels of Pak1 [2] | inhibitory effect on DNA replication ([3]; 50 μM added at 24 hours or 48 hours) | EGF-induced DNA synthesis ([3]; 50 μM from time of plating) | DNA synthesis ([3]; 50 μM maintained until 48 hours) | reduction in 3H-thymidine incorporation compared to untreated control cultures ([3]; 50 μM, withdrawal at 24 hours of culture, measured at 72 hours) | histone H4 acetylation, fold induction ([4]; 10 μM) | histone H4 acetylation, fold induction ([4]; 25 μM) | histone H4 hyperacetylation, fold induction ([4]; 50 μM) | acetylation of histone H4 [5] | expression of Cx32 [6] | total GST activity versus EtOH treated controls [7] | activity of CYP 1A1 versus EtOH-treated controls ([8]; 1 μM TSA starting at 0 h or 4 h, day 4 and 7) | CYP 1A1/2 Activity ([8]; 7-day conventionally cultured adult rat hepatocytes, 1 μm TSA)
1 | CN(C)c1ccc(C(=O)NCCCCC(=O)NO)cc1 [4-Me2N-BAVAH, 5-(4-dimethylaminobenzoyl)-aminovaleric acid hydroxamide] | decreased the expression | significantly lower | completely prevented | decrease in the cellular levels of Pak1 | less or no inhibitory effect | totally suppressed | no DNA synthesis occurred | 50.9±1.6% | 2.35±0.05 fold induction | 3.56±0.23 fold induction | 6.91±0.63 fold induction |  |  |  |  | 
2 | CC(C=CC(=O)NO)=CC(C)C(=O)c1ccc(N(C)C)cc1 (stereo not shown) [TSA] |  |  |  |  |  |  |  |  |  |  |  | hyperacetylation | induces the expressions | significantly higher | significantly higher | 4.3 ± 0.6 pmol resorufin/minute mg microsomal protein
